Source: publication PMC4867239 (Journal of biotechnology, 2016)
Ends that are not written are not given here.

Key:
S. aureus = test: microbe, parasite or virus in culture; conditions: Staphylococcus aureus, read-out: active at (MIC assay)
[1] = Plasma PK in mice, 14 days of daily IV dosing; format: in vivo, Mouse (CD-1); conditions: for AUC(0-t) / Cmax / MRT / Tmax: CD-1, mouse, plasma, iv
[2] = Plasma PK in cynomolgus monkeys, 14 days of daily IV dosing; format: in vivo, Cynomolgus macaques; conditions: for AUC(0-t) / Cmax / MRT: cynomolgus monkey, plasma, iv
[3] = Phase 1 SAD/MAD plasma PK in healthy volunteers; format: in vivo, Human; conditions: humans
[4] = Quantitative whole body autoradiography with [14C]SGX94; format: in vivo, male CD-1 mice

## CC[C@H]1OC(=O)[C@H](C)[C@@H](O[C@H]2C[C@@](C)(OC)[C@@H](O)[C@H](C)O2)[C@H](C)[C@@H](O[C@@H]2O[C@H](C)C[C@H](N(C)C)[C@H]2O)[C@](C)(O)C[C@@H](C)C(=O)[C@H](C)[C@@H](O)[C@]1(C)O [erythromycin]
S. aureus
  MIC: < 3.12 µg/mL

## RIVPA-NH2 [SGX94, dusquetide]
[1]; female, 20 mg/kg
  AUC(0-t): 1700 ng·h/mL
  Cmax: 8080 ng/mL
  MRT: 2 min
[1]; female, 60 mg/kg
  AUC(0-t): 6520 ng·h/mL
  Cmax: 27100 ng/mL
  MRT: 6.5 min
[1]; female, 90 mg/kg
  AUC(0-t): 10400 ng·h/mL
  Cmax: 45800 ng/mL
  MRT: 1.8 min
[1]; male, 20 mg/kg
  AUC(0-t): 4500 ng·h/mL
  Cmax: 23000 ng/mL
  MRT: 2.3 min
  Tmax: 3 min
[1]; male, 60 mg/kg
  AUC(0-t): 9290 ng·h/mL
  Cmax: 41200 ng/mL
  MRT: 1.8 min
  Tmax: 3 min
[1]; male, 90 mg/kg
  AUC(0-t): 17400 ng·h/mL
  Cmax: 72200 ng/mL
  MRT: 1.6 min
  Tmax: 3 min
[1]; mouse
  PK half-life: very short (minutes)
[2]; female, 20 mg/kg
  AUC(0-t): 2410 ± 1230 ng·h/mL
  Cmax: 12400 ± 6410 ng/mL
  MRT: 6.6 min
[2]; female, 80 mg/kg
  AUC(0-t): 3360 ± 4710 ng·h/mL
  Cmax: 16900 ± 24800 ng/mL
  MRT: 55 min
[2]; female, 160 mg/kg
  AUC(0-t): 36300 ± 26400 ng·h/mL
  Cmax: 179000 ± 132000 ng/mL
  MRT: 6.6 min
[2]; male, 20 mg/kg
  AUC(0-t): 1330 ± 438 ng·h/mL
  Cmax: 6650 ± 2520 ng/mL
  MRT: 7.8 min
[2]; male, 80 mg/kg
  AUC(0-t): 19400 ± 6910 ng·h/mL
  Cmax: 85900 ± 25800 ng/mL
  MRT: 7.8 min
[2]; male, 160 mg/kg
  AUC(0-t): 46000 ± 9570 ng·h/mL
  Cmax: 206000 ± 33400 ng/mL
  MRT: 7.2 min
[2]; non-human primate
  PK half-life: very short (minutes)
[3]
  PK half-life: very short (minutes)
[4]; 20 mg/kg [14C]SGX94 IV, by 5 min post-dose
  major analyte in blood: a metabolite of SGX94
[4]; QWBA, 20 mg/kg [14C]SGX94 IV bolus, male CD-1 mice
  penetration into CNS, bone, white adipose and eye lens: low penetration
